Like-named read-outs stand apart in the source and are kept apart here.
How the values were obtained:
[1] = target: T1, SUMO E1 (Homo sapiens, UniProt Q9UBT2); assay: SUMO E1 inhibition: UBC9-SUMO1 conjugation by SDS gel electrophoresis; assay type: biochemical; conditions: read-out: SUMO E1 percent inhibition of adduct formation; for inhibition at 10 µM: 10 uM compound; for inhibition at 25 µM: 25 uM compound; for inhibition at 9 µM: 9 uM compound; for inhibition at 3 µM: 3 uM compound; for inhibition at 1 µM: 1 uM compound; for inhibition at 27 µM: 27 uM compound
T1 sequence (Q9UBT2 1-640): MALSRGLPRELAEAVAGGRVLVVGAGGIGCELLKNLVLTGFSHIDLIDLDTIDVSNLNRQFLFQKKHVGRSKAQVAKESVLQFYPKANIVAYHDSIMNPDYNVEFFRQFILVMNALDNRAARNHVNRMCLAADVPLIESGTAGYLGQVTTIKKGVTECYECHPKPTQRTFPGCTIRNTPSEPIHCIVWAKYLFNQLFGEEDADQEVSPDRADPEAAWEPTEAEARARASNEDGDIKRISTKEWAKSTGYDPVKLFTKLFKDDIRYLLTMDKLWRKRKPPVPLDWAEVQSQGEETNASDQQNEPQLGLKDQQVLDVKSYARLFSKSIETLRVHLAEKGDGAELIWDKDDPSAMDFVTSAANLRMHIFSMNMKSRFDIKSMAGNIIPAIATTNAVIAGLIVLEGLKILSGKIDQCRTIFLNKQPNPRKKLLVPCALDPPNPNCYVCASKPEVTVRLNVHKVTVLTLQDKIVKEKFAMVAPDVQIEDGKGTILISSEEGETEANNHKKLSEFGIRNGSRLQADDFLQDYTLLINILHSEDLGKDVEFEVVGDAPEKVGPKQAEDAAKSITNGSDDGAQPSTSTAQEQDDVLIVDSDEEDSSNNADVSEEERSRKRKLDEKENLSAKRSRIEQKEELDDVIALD
T1 sequence (Q9UBE0 1-346 partner): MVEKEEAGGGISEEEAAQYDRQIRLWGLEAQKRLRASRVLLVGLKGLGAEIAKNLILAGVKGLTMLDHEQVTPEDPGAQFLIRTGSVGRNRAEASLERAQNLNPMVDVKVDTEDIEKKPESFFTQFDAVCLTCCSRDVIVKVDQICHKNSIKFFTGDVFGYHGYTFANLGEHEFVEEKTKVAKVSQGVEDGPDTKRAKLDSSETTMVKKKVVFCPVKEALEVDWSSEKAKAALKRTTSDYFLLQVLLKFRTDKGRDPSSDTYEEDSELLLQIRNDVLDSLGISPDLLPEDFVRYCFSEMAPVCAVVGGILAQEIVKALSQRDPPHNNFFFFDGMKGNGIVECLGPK
Procedure: (§1) Compounds are evaluated for their inhibitory effect on activating enzymes (E1) of ubiquitin, SUMO, Nedd8, Urm1, ISG15 or Atg7 using previously reported methods and protocols. One example is in: Allosteric inhibition of ubiquitin-like modifications by a class of inhibitor of SUMO-activating enzyme. Cell Chemical Biology, 26, 1-11, 2019. PMID: 28051857.
(§2) Compounds are tested in the following manner. The compound and SUMO E1 are incubated for a predetermined amount of time. UBC9, SUMO1, and ATP are added to the E1-compound mixture and incubated at 37° C. The reaction is quenched with Laemmli Buffer. The UBC9-SUMO1 conjugation is analyzed via SDS gel electrophoresis. The percent inhibition is measured by the intensity of the UBC9-SUMO1 band compared to the no compound control. Activities are listed as compound concentration (uM), preincubation time of E1 with compound (min), and percent inhibition of adduct formation (%). […]

[2] = target: T2, Atg7 (Homo sapiens, UniProt O95352); assay: Atg7 activating enzyme (E1) inhibition; assay type: biochemical; conditions: 25 uM compound, 60 min preincubation; read-out: Atg7 percent inhibition of adduct formation
T2 sequence (O95352 1-703): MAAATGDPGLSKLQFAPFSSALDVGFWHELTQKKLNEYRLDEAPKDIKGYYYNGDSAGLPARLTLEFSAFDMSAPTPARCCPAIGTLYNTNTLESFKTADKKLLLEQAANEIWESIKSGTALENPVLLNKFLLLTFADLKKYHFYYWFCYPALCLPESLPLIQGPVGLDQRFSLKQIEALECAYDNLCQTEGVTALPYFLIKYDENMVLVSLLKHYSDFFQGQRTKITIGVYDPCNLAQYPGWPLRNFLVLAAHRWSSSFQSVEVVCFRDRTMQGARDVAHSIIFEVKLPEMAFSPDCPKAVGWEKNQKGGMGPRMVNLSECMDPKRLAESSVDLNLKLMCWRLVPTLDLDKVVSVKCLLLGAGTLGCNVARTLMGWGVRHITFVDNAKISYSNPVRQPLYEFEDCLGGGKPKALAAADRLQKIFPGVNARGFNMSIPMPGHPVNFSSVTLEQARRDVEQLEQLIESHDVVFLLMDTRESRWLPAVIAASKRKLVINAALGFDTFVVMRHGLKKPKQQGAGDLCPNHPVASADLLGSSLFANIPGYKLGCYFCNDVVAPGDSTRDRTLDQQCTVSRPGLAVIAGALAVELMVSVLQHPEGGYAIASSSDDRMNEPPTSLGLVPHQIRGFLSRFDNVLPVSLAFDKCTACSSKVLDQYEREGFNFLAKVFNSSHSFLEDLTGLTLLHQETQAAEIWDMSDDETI
Procedure: as §1, §2

| inhibition at 25 µM [2] [%] | inhibition at 25 µM ([1]; 60 min preincubation) [%] | Structure (SMILES) | also measured |
| --- | --- | --- | --- |
| < 1 | – | C=CC(=O)N1Cc2sc(CC)cc2[C@@H](c2ccccc2)C1 [Compound 82] | inhibition at 10 µM ([1]; 30 min preincubation): 10% |
| < 1 | 10 | C=CC(=O)N1Cc2ccccc2C[C@H]1c1ccccc1 [Compound 26] | – |
| < 1 | – | C=CC(=O)N1Cc2cc(Cl)ccc2[C@@H](c2cccnc2)C1 [Compound 87] | inhibition at 9 µM ([1]; 30 min preincubation): < 1% |
| < 1 | – | Cc1cc2c(s1)CN(C(=O)CC#N)C[C@@H]2c1ccccc1 [Compound 95] | inhibition at 9 µM ([1]; 30 min preincubation): < 1% |
| 95 | < 1 | C=CC(=O)N1CCc2cc(CC3CCOCC3)ccc2C1 [Compound 18] | – |
| < 1 | – | C=CC(=O)N1CCc2sc(Cl)cc2[C@@H](c2ccccc2)C1 [Compound 142] | inhibition at 9 µM ([1]; 30 min preincubation): 80% |
| < 1 | – | C=CC(=O)N1Cc2cc(Cl)c(Cl)cc2[C@@H](c2ccccc2)C1 [Compound 100] | inhibition at 3 µM ([1]; 15 min preincubation): 30% |
| < 1 | < 1 | C=CC(=O)N1Cc2ccc(Br)cc2C1 [Compound 9] | – |
| < 1 | – | Cc1ccccc1[C@H]1CN(C(=O)/C=C/C(F)F)Cc2sc(Cl)cc21 [Compound 122] | inhibition at 1 µM ([1]; 30 min preincubation): 100% |
| < 1 | – | C=CC(=O)N1Cc2ccc(Br)cc2[C@@H](c2ccccc2Cl)C1 [Compound 46] | inhibition at 9 µM ([1]; 30 min preincubation): 50% |
| < 1 | – | C=CC(=O)N1Cc2sc(Br)cc2[C@@H](c2ccccc2C)C1 [Compound 72] | inhibition at 10 µM ([1]; 60 min preincubation): 100% |
| < 1 | < 1 | C=CC(=O)N1C[C@H](c2ccccc2)c2cc(Br)ccc2C1(C)C [Compound 67] | – |
| < 1 | < 1 | Cc1ccccc1[C@H]1CN(C(=O)/C=C/c2ccccc2)Cc2sc(Br)cc21 [Compound 90] | – |
| < 1 | 50 | C=CC(=O)N1CCc2cc(Oc3ccccc3)ccc2C1 [Compound 24] | – |
| 80 | – | C=CC(=O)N1Cc2sc(Cl)cc2[C@@H](c2ccccc2OC)C1 [Compound 109] | inhibition at 27 µM ([1]; 30 min preincubation): 30% |
| < 1 | – | C=CC(=O)N1CC[C@H](c2ccccc2)c2cc(Cl)sc2C1 [Compound 137] | inhibition at 27 µM ([1]; 30 min preincubation): < 1% |
| < 1 | – | C=CC(=O)N1CCc2ncncc2C1 [Compound 5] | inhibition at 25 µM ([1]; 30 min preincubation): 10% |
| < 1 | – | Cc1ccccc1[C@H]1CN(C(=O)[C@@H]2CO2)Cc2sc(Cl)cc21 [Compound 105] | inhibition at 27 µM ([1]; 30 min preincubation): < 1% |
| < 1 | < 1 | C=CC(=O)N1Cc2ccccc2[C@@H](c2cccc(O)c2)C1 [Compound 45] | – |
| < 1 | – | C=CC(=O)N[C@H]1Cc2sccc2[C@@H](c2ccccc2Cl)C1 [Compound 130] | inhibition at 3 µM ([1]; 30 min preincubation): < 1% |
| < 1 | < 1 | C=CC(=O)N1CCc2cccc(Br)c2C1 [Compound 21] | – |

| inhibition at 25 µM [2] [%] | inhibition at 25 µM ([1]; 60 min preincubation) [%] | Structure (SMILES) | also measured |
| --- | --- | --- | --- |
| < 1 | – | C=CC(=O)N1Cc2sc(Cl)cc2[C@@H](C2=CN(C)CC=C2)C1 [Compound 145] | inhibition at 9 µM ([1]; 30 min preincubation): < 1% |
| < 1 | – | C/C=C/C(=O)N1Cc2sc(Cl)cc2[C@@H](c2ccccc2C)C1 [Compound 97] | inhibition at 9 µM ([1]; 30 min preincubation): < 1% |
| < 1 | < 1 | C=CC(=O)N1Cc2ccccc2[C@@H](c2c(F)cccc2F)C1 [Compound 43] | – |
| < 1 | – | C=C(F)C(=O)N1Cc2sc(Cl)cc2[C@@H](c2ccccc2C)C1 [Compound 104] | inhibition at 25 µM ([1]; 30 min preincubation): < 1% |
| < 1 | – | C=CC(=O)N1Cc2sc(Cl)cc2[C@@H]([C@H]2CCCN(C)C2)C1 [Compound 147] | inhibition at 9 µM ([1]; 30 min preincubation): < 1% |
| < 1 | 50 | C=CC(=O)N1Cc2ccc(Br)cc2[C@@H](c2ccccc2Br)C1 [Compound 55] | – |
| < 1 | – | C=CC(=O)N1Cc2cc(Cl)ccc2[C@@H](c2ccncc2)C1 [Compound 92] | inhibition at 20 µM ([1]; 20 uM compound, 60 min preincubation): 10% |
| < 1 | – | C=CC(=O)N1Cc2cc(Br)ccc2[C@@H](c2ccccc2OC)C1 [Compound 70] | inhibition at 10 µM ([1]; 60 min preincubation): 60% |
| < 1 | – | C=CC(=O)N1Cc2sc(Cl)cc2[C@@H](c2csc3ccccc23)C1 [Compound 154] | inhibition at 18 µM ([1]; 18 uM compound, 15 min preincubation): < 1% |
| < 1 | – | Cc1ccccc1[C@H]1CN(C(=O)/C=C/C(F)(F)F)Cc2sc(Cl)cc21 [Compound 108] | inhibition at 1 µM ([1]; 30 min preincubation): 100% |
| < 1 | – | C=CC(=O)N1Cc2ccsc2[C@@H](c2ccccc2)C1 [Compound 116] | inhibition at 27 µM ([1]; 30 min preincubation): < 1% |
| < 1 | – | C=CC(=O)N1Cc2cc(Br)cnc2[C@@H](c2ccccc2)C1 [Compound 88] | inhibition at 9 µM ([1]; 30 min preincubation): < 1% |
| < 1 | < 1 | C=CC(=O)N1Cc2cc(C#N)ccc2[C@@H](c2ccccc2)C1 [Compound 79] | – |
| < 1 | 40 | C=CC(=O)N1CCc2cc(CC(C)C)ccc2C1 [Compound 19] | – |
| < 1 | – | C=CC(=O)N1CCc2ccccc2[C@@H](c2ccccc2)C1 [Compound 139] | inhibition at 27 µM ([1]; 30 min preincubation): < 1% |
| < 1 | – | C=CC(=O)N1Cc2cc(Cl)ccc2[C@@H](c2ccccc2)C1 [Compound 64] | inhibition at 10 µM ([1]; 60 min preincubation): 100% |
| < 1 | 40 | C=CC(=O)N1Cc2cc(OCC)ccc2[C@@H](c2ccccc2)C1 [Compound 36] | – |
| < 1 | – | C=CC(=O)N1Cc2sc(Cl)cc2[C@@H](c2ccco2)C1 [Compound 148] | inhibition at 9 µM ([1]; 30 min preincubation): < 1% |
| < 1 | 30 | C=CC(=O)N1Cc2cc(OCC(C)C)ccc2[C@@H](c2ccccc2)C1 [Compound 48] | – |
| < 1 | 20 | C=CC(=O)N1Cc2ccc(NS(=O)(=O)c3ccccc3)cc2C1 [Compound 17] | – |
| < 1 | – | C=CC(=O)N1Cc2sccc2[C@@H]([C@H]2CCCN(C)C2)C1 [Compound 146] | inhibition at 9 µM ([1]; 30 min preincubation): < 1% |

From patent publication US12398151B2, “Sumo inhibitor compounds and uses thereof” (SUVALENT THERAPEUTICS, INC., priority 2019, dated 2025)
